Results taken from patent US5300298A, “Methods of treating obesity with purine related compounds” (The Pennsylvania Research Corporation, priority 1992, dated 1994).

Assays:
[1] = test system: lean and obese Zucker rats; assay: Glucose tolerance test after seven days of BW1433 administration; type: in vivo
Method: FIG. 3: Glucose tolerance test after seven days of BW1433 administration. Animals were fasted overnight before injection of 1.25 g/Kg glucose and samples taken 15, 30, 60 and 120 min for glucose determinations. The conditions are the same as those described in legend to FIG. 2 (Cont=V).
FIG. 4: A bar graph representing the area under the glucose tolerance curves of FIG. 3.
(§1) Next, I studied the effect of chronic treatment with BW1433. For this purpose I employed 2 ml Alzet mini osmotic pumps. Each pump was loaded with 2 ml of a solution containing BW1433 or with vehicle (aqueous solution adjusted to pH II). The amount of BW1433 was adjusted so that the pump delivered either zero, 0.2 mg or 0.4 mg/Kg/hour to each animal. On the first day the animals had the pumps implanted and were given a priming (2 mg/Kg or 4 mg/Kg) dose of the antagonist. Blood was taken prior to surgery and six hours after the animals were removed from their food supply. On each subsequent day animals had free access to food and water overnight, then their food removed for six hours, and a blood sample taken.
(§2) In addition to taking blood samples for glycerol analysis, each animal was weighed every day for seven days. After seven days the animals were fasted overnight and a glucose tolerance test given The animals were then sacrificed and 1 ml blood sample taken for serum insulin and serum BW1433 determination drug levels. Insulin levels were measured with RIA kit (Diagnostic Products) and BW1433 levels were measured fluorometrically after HPLC separation at Burroughs Wellcome, Research Triangle Park, North Carolina. […] Nonetheless, when glucose tolerance curves were administered on day 7, drug-related differences could still be seen in all animals studied. […] This is illustrated more clearly in FIG. 4 where the area under the glucose tolerance curve is shown as a bar for each of the 6 groups of animals. […] FIG. 5 is a chart of the change in weight of treated and untreated lean and obese animals. […] The effect on weight change in each case was maximal at day 3, the day when the glycerol values peaked. […]

[2] = test system: lean and obese (fatty) Zucker rats; assay: Serum insulin after chronic administration of BW1433 (RIA kit); type: in vivo
Method: as §1
(§3) In addition to taking blood samples for glycerol analysis, each animal was weighed every day for seven days. After seven days the animals were fasted overnight and a glucose tolerance test given The animals were then sacrificed and 1 ml blood sample taken for serum insulin and serum BW1433 determination drug levels. Insulin levels were measured with RIA kit (Diagnostic Products) and BW1433 levels were measured fluorometrically after HPLC separation at Burroughs Wellcome, Research Triangle Park, North Carolina. […] Nonetheless, when glucose tolerance curves were administered on day 7, drug-related differences could still be seen in all animals studied. […] This is illustrated more clearly in FIG. 4 where the area under the glucose tolerance curve is shown as a bar for each of the 6 groups of animals. […] FIG. 5 is a chart of the change in weight of treated and untreated lean and obese animals. […] The effect on weight change in each case was maximal at day 3, the day when the glycerol values peaked. Based on these remarkable results, the compounds of Formula I can be administered to obese warm-blooded animals as anti-obesity agents, or administered to farm animals to advantageously increase the ratio of muscle mass to fat therein.
The obese animals apparently have lower extracellular fluid volume per Kg body weight.

Al adenosine receptor [3] = assay: Blockade by BW1433 of receptors activated with the agonist N-6 phenylisopropyladenosine (PIA), subcutaneous; type: in vivo, rat (Sprague Dawley, lean Zucker, obese Zucker); settings: all three strains of rat
Method: Next, I studied the effect of subcutaneous injections of BW1433 in 18 hour fasted animals. The results, shown in FIG. 1, support my initial postulation, that the Al adenosine receptor may be particularly active in obese animals. […] To distinguish between these possibilities, the agonist N-6 phenylisopropyladenosine (PIA) was injected subcutaneously either alone or in combination with BW1433.

[4] = Serum BW1433 level after chronic administration (fluorometric after HPLC separation); type: in vivo, Zucker rats; settings: for concentration at 168 h: rat, serum, day 7
Method: as §3, with “Next, I studied the effect of chronic treatment with BW1433. For this purpose I employed 2 ml Alzet mini osmotic pumps. Each pump was loaded with 2 ml of a solution containing BW1433 or with vehicle (aqueous solution adjusted to pH II). The amount of BW1433 was adjusted so that the pump delivered either zero, 0.2 mg or 0.4 mg/Kg/hour to each animal. On the first day the animals had the pumps implanted and were given a priming (2 mg/Kg or 4 mg/Kg) dose of the antagonist. Blood was taken prior to surgery and six hours after the animals were removed from their food supply. On each subsequent day animals had free access to food and water overnight, then their food removed for six hours, and a blood sample taken. In addition” for “In addition”, “fat therein. […] The obese animals apparently have lower extracellular fluid volume per Kg body weight.” for “fat therein.”

[5] = Body weights during chronic administration of BW1433; type: in vivo, Zucker rats
Method: FIG. 5: Body weights of lean and obese Zucker rats during chronic administration of BW1433. The data are presented as a % of day 0 weight. Day 0 represents when the Alzet mini-pumps were implanted. The conditions are the same as those described in the legend to FIG. 2.
as §1, §2

[6] = test system: lean and obese Zucker rats; assay: Daily serum glycerol during chronic administration of BW1433 (Alzet mini osmotic pumps); type: in vivo
Method: FIG. 2: Daily serum glycerol levels during chronic administration of BW1433 in lean (L) and obese (F) Zucker rats. In the no drug group (V) n=5, in the D1 group (0.2 mg/Kg/hr) n=5, and in the D2 group (0.4 mg/Kg/hr) n=4.
as §1, §3

[7] = cited from earlier work
Al adenosine receptor [8] = assay: Acute subcutaneous injection of BW1433, serum glycerol (whole body lipolysis); type: in vivo, Sprague Dawley rats; lean and obese Zucker rats; settings: Sprague Dawley rats, 18 hour fasted, 60 min after subcutaneous injection, 0-10 mg/Kg
Method: FIG. 1: Serum glycerol levels 60 min after a subcutaneous injection of BW1433 (0-10 mg/Kg) in Sprague Dawley rats (SD) and lean and obese Zucker rats. Each point represents 3-4 animals in the case of SD rats and 3-10 or 4-10 in the case of lean and obese Zuckers, respectively.
My initial studies were carried out following acute subcutaneous injections of the drug into male Sprague Dawley rats and into lean and into obese Zucker rats. Blood samples (100 microliter) were taken from the tail of the rats and measurements made of serum glycerol^6. Glycerol is an end product of lipolysis and thus an excellent indicator of the rate of whole body lipolysis. […] I discovered that in the absence of the Formula I compound tested, serum glycerol levels only differ slightly when comparing lean and obese animals. Since there is 3-4 times more fat in the obese animal this is good evidence for sluggish lipolysis per g of fat in the obese. The obese animals however seem to mobilize the fat at an earlier time after removal of their food supply (Table 1), since after 6 hours of fasting the obese serum glycerol levels are much higher than the lean.
Next, I studied the effect of subcutaneous injections of BW1433 in 18 hour fasted animals. The results, shown in FIG. 1, support my initial postulation, that the Al adenosine receptor may be particularly active in obese animals. […]

## CCCn1c(=O)c2nc(-c3ccc(/C=C/C(=O)O)cc3)[nH]c2n(CCC)c1=O [BW1433, (E)-4-(1,2,3,6-tetrahydro-2,6-dioxo-1,3-dipropyl-9H-purin-8-yl)cinnamic acid]
[1]; day 7, 1.25 g/Kg glucose
  glucose tolerance: improved glucose tolerance
[1]; lean and obese (fatty) animals, FIG. 4
  area under the glucose tolerance curves: does reduce the area under these curves
[1]; lean and obese Zucker rats, 1.25 g/Kg glucose intraperitoneal, day 7, dose dependence
  area under the glucose tolerance curve: smaller, the larger the dose
[2]; Fatty, +BW1433, 0.2 mg/kg (vehicle 54.06 ± 9.49)
  serum insulin: 52.81 ± 4.82 micro lu/ml
[2]; Fatty, +BW1433, 0.4 mg/kg (vehicle 54.06 ± 9.49)
  serum insulin: 58.06 ± 6.52 micro lu/ml
[2]; Lean, +BW1433, 0.2 mg/kg (vehicle 7.92 ± 0.92)
  serum insulin: 11.63 ± 1.62 micro lu/ml
[2]; Lean, +BW1433, 0.4 mg/kg (vehicle 7.92 ± 0.92)
  serum insulin: 10.67 ± 1.50 micro lu/ml
Al adenosine receptor [3]
  dose at which receptors could be effectively blocked: 1 to 2 mg/kg
[4]; obese compared with lean Zucker rats
  serum drug level, obese versus lean: somewhat higher levels of drug than the lean
[4]; 0.2 mg/kg/h, Fatty, +BW1433, 0.2 mg/kg (pump, per hour)
  concentration at 168 h: 205 ± 22 ng/mL
[4]; 0.2 mg/kg/h, Lean, +BW1433, 0.2 mg/kg (pump, per hour)
  concentration at 168 h: 102 ± 20 ng/mL
[4]; 0.4 mg/kg/h, Fatty, +BW1433, 0.4 mg/kg (pump, per hour)
  concentration at 168 h: 624 ± 80 ng/mL
[4]; 0.4 mg/kg/h, Lean, +BW1433, 0.4 mg/kg (pump, per hour)
  concentration at 168 h: 366 ± 98 ng/mL
[5]; lean Zucker rats
  growth or weight gain: increased growth or weight gain
[5]; lean and obese
  day of maximal effect on weight change: 3 days
[5]; obese Zucker rats
  growth or weight gain: decreased growth or weight gain
[6]; chronic
  day when the glycerol values peaked: 3 days
[6]; day 7, chronic
  serum levels on day 7 (adaptation to the drug): all serum levels were similar on day 7
[6]; lean Zucker rats, chronic 0.2 or 0.4 mg/Kg/hour
  effect on serum glycerol level: did not effect the glycerol level
[6]; obese Zucker rats, chronic
  serum glycerol level, higher dose (0.4 mg/Kg) versus lower dose (0.2 mg/Kg): higher in the group with the higher dose of drug
[6]; obese Zucker rats, chronic 0.2 or 0.4 mg/Kg/hour
  serum glycerol level versus controls: much higher levels of glycerol than the controls
[7]
  oral administration and absorption: can be administered and absorbed orally
Al adenosine receptor [8]
  effect on serum glycerol: little or no effect
